Consider two molecules from US11180461B2, “Triazoles as Kv3 inhibitors” (AUTIFONY THERAPEUTICS LIMITED, priority 2012, dated 2021).

Assay [1] has as its system aged and young Fischer 344 (F344) rats. Description: Model of central auditory processing deficit: auditory gap detection (gap-induced PPI of startle) in F344 rats. Type of assay: in vivo, rat. As for the experimental part: The ability of COMPOUND X to improve auditory temporal processing in the rat, was examined using an auditory gap detection procedure in aged female Fischer 344 (F344) rats with an average age of 19.5±1.9 months, and in young F344 rats with an average age of 3 months. COMPOUND X, at doses of 30 or 60 mg/kg, or vehicle were administered via the intraperitoneal route on three test occasions using a crossover design, with an interval of at least 7 days between occasions.
Hearing thresholds in each rat were determined under anaesthesia using the auditory brainstem response (ABR) prior to the first drug administration. ABRs were recorded using subcutaneous needle electrodes in a sound attenuated chamber using pure tone bursts as stimuli (5 ms duration, frequency range 2-40 kHz).
The gap detection procedure evaluated the ability of the rats to detect short gaps in background noise by measuring the degree of inhibition that the gap afforded in the animal's startle response to a subsequent loud sound, a phenomenon known as pre-pulse inhibition (PPI). Testing was performed in a sound attenuated chamber. During the testing procedure, the rat was confined to a small wire mesh cage on a motion-sensitive platform. The animal's reflex movements were detected and transduced by a piezoelectric accelerometer. The startle response was evaluated in a 100 ms window beginning at the onset of the startle stimulus (a 110 dB SPL broad-band noise burst of 50 ms duration embedded in a background continuous broad-band noise of 65 dB SPL). Acoustic stimulation was presented via a loudspeaker placed 12 cm above the platform inside the chamber.
PPI of the startle response was induced by gaps of different durations (5-50 ms) preceding the startle stimulus by 70 ms. The degree of PPI was calculated from the startle response amplitude in the presence of the gap relative to the startle response amplitude in the absence of the gap. A two-way ANOVA with the Bonferroni post-hoc test was used to compare the degree of PPI before and after the drug applications.

Assay [2] concerns Long Evans adult rats with noise-induced tinnitus. The experiment in a line: Model of tinnitus: gap pre-pulse inhibition of acoustic startle in noise-exposed Long Evans rats. Type of assay: in vivo, rat. As for the experimental part:
Twenty Long Evans adult rats were exposed to a unilateral 116 dB, 16 kHz octave-band noise for one hour in order to induce hearing loss and chronic tinnitus. Ten control rats received a sham noise exposure. Approximately thirty days after the noise exposure hearing thresholds were determined for each animal. Animals were then assessed for the presence of tinnitus using a gap pre-pulse inhibition of acoustic startle paradigm similar to that described by Turner J G, Brozoski T J, Bauer C A, Parrish J L, Myers K, Hughes L F, Caspary D M. Behav Neurosci. 2006 February; 120(1):188-95. In this test, rats were placed on a motion sensor that measured the startle amplitude of the animals in response to a sudden loud sound (115-dB SPL, 20-ms duration) emitted by a loudspeaker located in the ceiling of the cage. It is known that a brief, non-startling sound or “pre-pulse”, prior to the startle sound can reduce the startle amplitude, a phenomenon known as pre-pulse inhibition. In the present study, the pre-pulse is substituted by a 50 ms silence gap in a constant sound 100 ms prior to the startle sound. If the gap is perceived by the animal, then then startle response will be inhibited. However, if the animal has tinnitus, then the tinnitus sound may fill the gap and will startle as if there were no gap (reduced or absent gap pre-pulse inhibition). A drug that reduces the tinnitus will therefore restore gap pre-pulse inhibition.
The pitch of tinnitus is typically in the same range as the hearing loss, which in turn is most marked at the frequencies of the noise trauma. Thus each animal was tested for gap pre-pulse inhibition using gaps in tones of 10, 12.5, 16, 20, and 25 kHz at 60-65 dB SPL. As a control, the animals were also tested with gaps in a broadband sound of the same amplitude. Irrespective of whether the animals have tinnitus, it is unlikely that the tinnitus would fill the gap in the broadband sound, and thus this provides a control for whether the noise-trauma might have affected the gap detection ability of the rats. […]

Assay [3] deals with chinchilla model of acute noise-induced hearing loss. The experiment in a line: Chinchilla model of acute noise-induced hearing loss (auditory brainstem response thresholds). The conditions noted are these: 60 mg/kg i.p., doses 12 hours apart, 5 pre- and 5 post-noise; 21 days after noise exposure; p<0.01. It counts as in vivo. As for the experimental part: The otoprotective efficacy of COMPOUND X (i.e. the ability to prevent or reduce the development of permanent acute noise-induced hearing loss) was investigated using a chinchilla model of acute noise-induced hearing loss, as follows:
Subjects comprised male, 3 year old chinchillas (Laniger), 10 animals per group.
Vehicle (20% Captisol®, 0.5% w/v HPMC K15M and 0.5% w/v Tween-80™) was prepared using autoclaved deionized water not more than one week prior to use. A suspension of COMPOUND X in the vehicle at 10 mg/ml was prepared less than 24 hours prior to administration. COMPOUND X was administered at 60 mg/kg via the intraperitoneal route, with doses 12 hours apart. Five injections were given pre-noise exposure and five post-noise exposure. […]
Auditory brainstem responses (ABRs) were collected prior to noise exposure and 21 days after noise exposure. […] Thresholds were measured in response to tone-bursts with 1 ms rise/fall and a 0 ms plateau gated by a Blackman envelope and centred at the frequencies of 2, 4, 6 and 8 kHz, presented at 30/s. […]
The thresholds for ABRs at the four different sound frequencies at day 21 post-noise exposure were compared to the thresholds at baseline, prior to noise exposure in order to determine a threshold shift for each animal. The data were then analysed using a 2-way ANOVA, with treatment and frequency as main factors.

The test system of assay [4] is Kv3 channels. The settings on record: cited from earlier work.

For `CC[C@@]1(C)NC(=O)N(c2cnc(Oc3ccc(C)c(OC(F)(F)F)c3)nc2)C1=O` [COMPOUND X, (5R)-5-ethyl-5-methyl-3-[2-({4-methyl-3-[(trifluoromethyl)oxy]phenyl}oxy)-5-pyrimidinyl]-2,4-imidazolidinedione], the “degree of PPI (gap detection)” value was “significantly increased” in assay [1] (aged F344 rats, 30 mg/kg i.p., 30 ms gap duration, p<0.001); “significant improvement” in assay [1] (aged F344 rats, 30 mg/kg i.p., gap durations of 5, 10, and 15 ms); “significantly increased” in assay [1] (aged F344 rats, 60 mg/kg i.p., 30 ms gap duration, p<0.001); “tended to increase the degree of PPI, but the increases were not significant” in assay [1] (young F344 rats, 30 mg/kg i.p.); “tended to increase the degree of PPI, but the increases were not significant” in assay [1] (young F344 rats, 60 mg/kg i.p.). Besides, the gap pre-pulse inhibition result in assay [2] (animals with evidence of tinnitus, 30 mg/kg i.p. 1-2 hours prior to testing, p<0.05) is on record as “significantly restored”; in assay [2] (animals with evidence of tinnitus, 60 mg/kg i.p. 1-2 hours prior to testing, p=0.01), “significantly restored”; in assay [2] (control animals or noise-exposed animals without tinnitus), “no effect”. In addition, the “permanent threshold shift in ABR” value in assay [3] is given as “significantly reduced”.
Turning to `CC[N+](CC)(CC)CC` [Tetraethylammonium (TEA), Tetraethylammonium], the “inhibition of Kv3 channels” value in assay [4] is recorded as “inhibit the channels at low millimolar concentrations”.
